{"source": "patent US20230114728A1", "about": "(Venatorx Pharmaceuticals, Inc., priority 2019, published 2023)", "key": {"E. coli K12 PBP1a": {"target": "T1, E. coli K12 PBP1a (Escherichia coli, UniProt P02918)", "T1 construct": "made in house", "T1 sequence (P02918 whole entry)": "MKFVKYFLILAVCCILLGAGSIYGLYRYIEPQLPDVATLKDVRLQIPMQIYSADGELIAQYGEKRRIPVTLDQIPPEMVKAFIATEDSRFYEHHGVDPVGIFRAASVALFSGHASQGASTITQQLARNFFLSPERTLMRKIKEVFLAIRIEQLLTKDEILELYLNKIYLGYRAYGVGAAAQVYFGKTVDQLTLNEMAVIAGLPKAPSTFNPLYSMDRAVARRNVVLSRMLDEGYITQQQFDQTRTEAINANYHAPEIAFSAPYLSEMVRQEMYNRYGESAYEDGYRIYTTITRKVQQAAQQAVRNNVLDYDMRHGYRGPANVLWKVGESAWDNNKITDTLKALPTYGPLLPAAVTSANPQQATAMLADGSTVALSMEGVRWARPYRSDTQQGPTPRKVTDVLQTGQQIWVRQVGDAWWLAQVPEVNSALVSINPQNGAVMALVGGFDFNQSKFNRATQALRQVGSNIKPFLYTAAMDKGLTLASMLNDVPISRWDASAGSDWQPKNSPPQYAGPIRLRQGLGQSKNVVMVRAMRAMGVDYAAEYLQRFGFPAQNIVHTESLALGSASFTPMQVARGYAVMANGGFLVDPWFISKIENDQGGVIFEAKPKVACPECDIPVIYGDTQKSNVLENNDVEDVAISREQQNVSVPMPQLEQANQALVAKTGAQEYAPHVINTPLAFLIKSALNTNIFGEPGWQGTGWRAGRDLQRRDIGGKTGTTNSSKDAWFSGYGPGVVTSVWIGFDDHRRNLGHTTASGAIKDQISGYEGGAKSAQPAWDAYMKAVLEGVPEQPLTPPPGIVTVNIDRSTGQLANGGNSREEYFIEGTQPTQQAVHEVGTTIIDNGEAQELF", "assay": "Radioligand competition binding assay with 14C-labeled boronic acid probe, E. coli PBP1a", "conditions": "PBP1a/PBP1b at 0.1 μM, Compound A at 20 μM, read-out: EC50 (the concentration of inhibitor required to reduce binding of Compound A by 50%)", "excerpt": "(§1) Example II: Experimental Method to Assess Binding to Penicillin-Binding Proteins: Radioligand Competition Binding Assay\n(§2) To determine the ability of boronic acid-based test PBP inhibitors to bind Penicillin Binding Proteins (PBPs), a radio-labelled boronic acid PBP inhibitor:\nwas used in competition binding assays to determine boronic acid PBP inhibitor binding to PBP1a or PBP1b from Escherichia coli. PBP1a and PBP1b were purified as described previously (Bertsche, U.; et al., J Biol. Chem. 2005, 280 (45), 38096-38101; Born, P.; et al., J Biol. Chem. 2006. 281 (37), 26985-26993). To establish assay conditions for competition binding, an enzyme titration/saturation binding experiment was performed. Saturation binding was performed in a buffer comprised of 20 mM Tris (pH 7.5), 500 mM NaCl and 0.1% (v/v) TritonX-100, with PBP1a/PBP1b at a final concentration of 0.1 μM and Compound A at final concentrations ranging from 0-100 μM. […] The flow through, containing PBP bound with Compound A, was recovered and 100 μL mixed with 5 mL of UltimaGold liquid scintillation cocktail (Perkin Elmer), and the radioactivity counted using a Beckman Coulter LS 6500 Multipurpose scintillation counter. […] The flow through was recovered and 100 μl mixed with 5 ml of UltimaGold liquid scintillation cocktail and the radioactivity counted. […]"}, "E. coli K12 PBP1b": {"target": "T2, E. coli K12 PBP1b (Escherichia coli, UniProt P02919)", "T2 construct": "made in house", "T2 sequence (P02919 whole entry)": "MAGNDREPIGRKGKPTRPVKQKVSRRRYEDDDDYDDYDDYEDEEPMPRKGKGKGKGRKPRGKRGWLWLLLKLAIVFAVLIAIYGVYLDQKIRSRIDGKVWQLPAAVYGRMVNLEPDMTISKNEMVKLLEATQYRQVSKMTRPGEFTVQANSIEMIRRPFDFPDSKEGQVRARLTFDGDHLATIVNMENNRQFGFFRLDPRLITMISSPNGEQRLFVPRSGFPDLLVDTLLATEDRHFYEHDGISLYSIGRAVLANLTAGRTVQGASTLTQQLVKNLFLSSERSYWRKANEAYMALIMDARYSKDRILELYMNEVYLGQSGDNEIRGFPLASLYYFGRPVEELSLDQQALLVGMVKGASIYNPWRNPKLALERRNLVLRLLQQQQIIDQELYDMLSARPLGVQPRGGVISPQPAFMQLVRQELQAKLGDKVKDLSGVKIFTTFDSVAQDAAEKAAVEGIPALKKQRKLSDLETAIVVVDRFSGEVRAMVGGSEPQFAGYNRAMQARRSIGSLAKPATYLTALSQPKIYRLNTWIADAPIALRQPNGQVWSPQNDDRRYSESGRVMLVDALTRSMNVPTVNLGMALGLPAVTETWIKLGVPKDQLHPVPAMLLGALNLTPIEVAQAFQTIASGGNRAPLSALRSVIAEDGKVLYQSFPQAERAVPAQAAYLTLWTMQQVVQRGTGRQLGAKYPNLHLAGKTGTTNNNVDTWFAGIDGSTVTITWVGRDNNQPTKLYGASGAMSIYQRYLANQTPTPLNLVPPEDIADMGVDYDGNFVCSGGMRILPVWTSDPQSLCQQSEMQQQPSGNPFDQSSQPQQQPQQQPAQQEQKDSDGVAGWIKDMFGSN", "assay": "Radioligand competition binding assay with 14C-labeled boronic acid probe, E. coli PBP1b", "conditions": "PBP1a/PBP1b at 0.1 μM, Compound A at 20 μM; E. coli PBP1b; read-out: EC50 (the concentration of inhibitor required to reduce binding of Compound A by 50%)", "excerpt": "as §1, §2\nwas used in competition binding assays to determine boronic acid PBP inhibitor binding to PBP1a or PBP1b from Escherichia coli. PBP1a and PBP1b were purified as described previously (Bertsche, U.; et al., J Biol. Chem. 2005, 280 (45), 38096-38101; Born, P.; et al., J Biol. Chem. 2006. 281 (37), 26985-26993). To establish assay conditions for competition binding, an enzyme titration/saturation binding experiment was performed. Saturation binding was performed in a buffer comprised of 20 mM Tris (pH 7.5), 500 mM NaCl and 0.1% (v/v) TritonX-100, with PBP1a/PBP1b at a final concentration of 0.1 μM and Compound A at final concentrations ranging from 0-100 μM. Mixtures were incubated for 60 minutes, then applied to Zeba Spin Desalting columns or plates (ThermoFisher Scientific) and centrifuged at 1000-1500×g for 2 minutes. The flow through, containing PBP bound with Compound A, was recovered and 100 μL mixed with 5 mL of UltimaGold liquid scintillation cocktail (Perkin Elmer), and the radioactivity counted using a Beckman Coulter LS 6500 Multipurpose scintillation counter. PBP binding of Compound A approached saturation at 20 μM of ^14C-labeled probe. The competition binding assay was validated using the beta-lactam ampicillin, with Compound A at a final concentration of 20 μM, PBP1a/PBP1b at a final concentration of 0.1 μM. PBP1a/PBP1b was incubated with ampicillin in a 96-well microplate for 60 minutes, then Compound A was added and the mixtures incubated for an additional 60 minutes. The mixtures were then applied to Zeba Spin desalting plates and centrifuged at 1000×g for 2 minutes. The flow through was recovered and 100 μl mixed with 5 ml of UltimaGold liquid scintillation cocktail and the radioactivity counted. […] Binding assays with boronic acid PBP inhibitors were performed in an identical fashion. […]"}}}
{"compound": "CC1(C)S[C@@H]2[C@H](NC(=O)[C@H](N)c3ccccc3)C(=O)N2[C@H]1C(=O)O", "note": "[ampicillin, reference compound]", "values": [{"measurement": "EC50", "setting": "E. coli K12 PBP1a", "value": "< 500", "unit": "nM"}, {"measurement": "EC50", "setting": "E. coli K12 PBP1b", "value": "< 500", "unit": "nM"}]}
